Assay results as given in US7294638B2, “Treatment of ADHD” (H. Lundbeck A/S, priority 2001, dated 2007).

What was measured:
[1] = target: T1, dopamine D4 receptors (Homo sapiens, UniProt P21917); conditions: data in WO 98/28293; cited from earlier work
T1 sequence (P21917 1-419): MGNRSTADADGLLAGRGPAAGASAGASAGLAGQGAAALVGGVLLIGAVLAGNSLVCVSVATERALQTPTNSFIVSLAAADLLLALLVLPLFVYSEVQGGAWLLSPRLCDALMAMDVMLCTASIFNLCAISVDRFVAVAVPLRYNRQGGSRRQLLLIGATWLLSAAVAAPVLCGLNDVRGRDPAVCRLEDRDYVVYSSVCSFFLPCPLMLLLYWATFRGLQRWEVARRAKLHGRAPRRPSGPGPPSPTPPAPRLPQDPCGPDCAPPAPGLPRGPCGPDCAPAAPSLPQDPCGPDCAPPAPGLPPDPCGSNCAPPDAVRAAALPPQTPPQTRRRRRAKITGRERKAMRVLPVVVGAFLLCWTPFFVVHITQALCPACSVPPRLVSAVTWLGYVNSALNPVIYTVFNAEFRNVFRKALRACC

[2] = tested on: DAT knock-out (KO) mice; conditions: Gainetdinov et al. Science 1999; cited from earlier work
[3] = tested on: DAT knock-out (KO) mice; assay: DAT-KO mice model of ADHD (hyperactivity); assay type: in vivo; conditions: animal model of ADHD
Description: A very useful animal model of ADHD is the DAT knock-out (KO) mice (Gainetdinov et al. Science 1999, 283, 397-401).
The compound, (S)-(+)-3-[1-[2-(1-acetyl-2,3-dihydro-1H-indol-3-yl)ethyl]-1,2,3,6-tetrahydropyridin-4-yl]-6-chloro-1H-indole, has been tested in the DAT-KO mice, an animal model which have many behaviour patterns and responses to psychostimulants in common with individuals with ADHD (Gainetdinov et al. Science 1999, 283, 397-401).

[4] = clinical; Barrickman et al. 1991; cited from earlier work

CC(=O)N1CC(CCN2CC=C(c3c[nH]c4cc(Cl)ccc34)CC2)c2ccccc21 (racemic) [3-[1-[2-(1-acetyl-2,3-dihydro-1H-indol-3-yl)ethyl]-1,2,3,6-tetrahydropyridin-4-yl]-6-chloro-1H-indole]
dopamine D4 ligand potency [1]: potent dopamine D4 ligand

N[C@@H](Cc1c[nH]c2ccc(O)cc12)C(=O)O [5-hydroxytryptophan]
reversal of hyperactivity in DAT-KO mice [2]: counteract the hyperactivity

CC(=O)N1C[C@@H](CCN2CC=C(c3c[nH]c4cc(Cl)ccc34)CC2)c2ccccc21 [(S)-(+)-3-[1-[2-(1-acetyl-2,3-dihydro-1H-indol-3-yl)ethyl]-1,2,3,6-tetrahydropyridin-4-yl]-6-chloro-1H-indole]
effect in the DAT-KO mice model [3]: have effect in this model

N[C@@H](Cc1c[nH]c2ccccc12)C(=O)O [L-tryptophan]
reversal of hyperactivity in DAT-KO mice [2]: counteract the hyperactivity

CC(N)Cc1ccccc1 (stereo not drawn) [amphetamine]
reversal of hyperactivity in DAT-KO mice [2]: can be reversed

CNCCC(Oc1ccc(C(F)(F)F)cc1)c1ccccc1 (stereo not drawn) [fluoxetine]
reducing symptoms of ADHD [4]: effective in reducing symptoms of ADHD | reversal of hyperactivity in DAT-KO mice [2]: counteract the hyperactivity

COC(=O)C(c1ccccc1)C1CCCCN1 (stereo not drawn) [methylphenidate]
reversal of hyperactivity in DAT-KO mice [2]: can be reversed

c1ccc2nc(N3CCNCC3)ccc2c1 [quipazine]
reversal of hyperactivity in DAT-KO mice [2]: counteract the hyperactivity
